The nature of series [1]: Assay 4 solubility assay, ChemiLuminescent Nitrogen Detection (CLND). Type of series: physicochemical. The note with it: phosphate buffered saline, pH 7.4, aqueous buffer, kinetic from dmso stock, pH 7.4 PBS, from 10 mM DMSO stock, 1 h at room temperature. The protocol: A 10 mM DMSO stock solution of the compound was prepared. Solvents and Buffers Organic solvents of HPLC grade were used. Ultra pure water (Milli-Q grade) was used. Buffers were prepared with ultra pure water and filtered using 0.45μ cameo filters. Aqueous Buffer Solution: Phosphate Buffer Saline (PBS) @ pH 7.4 was prepared from Sigma dry powder packs, P-3813. Each one was diluted to 1 liter with deionised water. The pH was checked before the solution was used II. Procedures. • a) DMSO concentration was measured. DMSO blanks and ondansetron and caffeine standards were added to the plate (column 12, A, B, C, & D for the blanks and E, F, G, & H for the standards). Plates were covered with foil. When the UV and CLND detectors baselines appeared to be stable, the CLND was zeroed. • b) Once DMSO concentration measurements were complete, a filtration plate was prepared from each parent plate by diluting 5 μl of the 10 mM DMSO stock solution to […] with pH7.4 PBS. • c) After the plates were prepared, they were covered with a plate lid and left to incubate for 1 h at room temperature. • d) Sample was filtered using MILLIPORE MultiScreen Solubility (MSSLBPC10) Filtration Plates, to NUNC V well plates. The filter plate was removed and the NUNC plate was sealed with a power seal plate seal. • e) HPLC/CLND instruments were set up and left to equilibrate. Mobile phases (MeOH:H2O 1:1, flow rate: 0.2 ml/min, sensitivity z10, Gain High). The samples were run. • f) The assay curve fit was done by linear regression and solubility values were reported in μM.

Series [2] has as its system Trypanosoma cruzi. Nature of the series: Assay 6 Trypanosoma cruzi intracellular assay (infected H9C2 cells). In kind it is cell-based. To be noted: H9c2, in Rattus norvegicus, 72 h, infected H9C2 rat cardiomyocytes, read-out: pEC50 value against Trypanosoma cruzi (converted). The protocol:
Compounds were dispensed into black 384-well assay plates (Greiner) by acoustic dispensing (LabCyte ECHO). For potency determinations, eleven-point, one in three dilution curves were generated, with a top concentration of 50 μM. H9C2 rat cardiomyocytes cells were dispensed in T225 tissue culture flasks and after 4 hours they were infected during 18 hours with T. cruzi trypomastigotes in the same T225 tissue culture flasks at a multiplicity of infection of 1. Next, any remaining free trypomastigotes were washed away with PBS and the infected H9C2 cells were harvested by trypsinisation. The infected H9C2 cells were then plated into 384-well plates containing the compounds to be tested, at 2500 cells per well in DMEM media with 2% FBS, 1% Penicillin/Streptomocin, 2 mM L-Glutamine, 1 mM Na Pyruvate and 25 mM HEPES. After 72 h incubation at 37° C. in presence of 5% CO2, the plates were fixed and stained with 4% formaldehyde and 2 μM Draq5 for 3 hours at room temperature. The plates were imaged on a Perkin Elmer Opera high-content imaging system using a 20× air objective. Images were analysed using the Acapella building blocks system (Perkin Elmer). The image analysis algorithm first identified the H9C2 nuclei followed by demarcation of the cytoplasm and identification of intracellular amastigotes. This algorithm reported mean number of parasites per H9C2 cell, the percentage of infected H9C2 cells and the total number of H9C2 cells.

SMILES strings stand for the structures. ≈ marks a conversion by molar mass, not a printed value.

This note sets out measurements from US10065965B2, “Imidazo[1,2-B][1,2,4]triazine derivatives as antiparasitic agents” (GlaxoSmithKline Intellectual Property Development Limited, priority 2015, dated 2018).

The molecule `O=C(Nc1ccc(F)c(-c2cn3nc(C4=CCOCC4)cnc3n2)c1)N1CCCC1` [Example 12, N-(3-(2-(3,6-dihydro-2H-pyran-4-yl)imidazo[1,2-b] [1,2,4]triazin-6-yl)-4-fluorophenyl)pyrrolidine-1-carboxamide] returned a solubility at 1 h in series [1] of 10 to 83 µM (≈ 4.08 to 33.9 µg/mL). Further, the EC50 in series [2] is 5.01 to 631 nM.
Turning to `O=C(Nc1ccc(F)c(-c2cn3nc(-c4ccc(OCCN5CCOCC5)cc4)cnc3n2)c1)N1CCCC1` [Example 17, N-(4-fluoro-3-(2-(4-(2-morpholinoethoxy)phenyl)imidazo[1,2-b][1,2,4]triazin-6-yl)phenyl) pyrrolidine-1-carboxamide], the solubility at 1 h in series [1] was 1 to 6 µM (≈ 0.532 to 3.19 µg/mL). Also, in series [2], the EC50 was 5.01 to 631 nM.
`O=C(Nc1ccc(F)c(-c2cn3nc(-c4ccccc4CN4CCOCC4)cnc3n2)c1)N1CCCC1` [Example 20, N-(4-fluoro-3-(2-(2-(morpholinomethyl)phenyl)imidazo[1,2-b] [1,2,4]triazin-6-yl)phenyl)pyrrolidine-1-carboxamide] had a solubility at 1 h in series [1] of 10 to 83 µM (≈ 5.02 to 41.6 µg/mL). The EC50 in series [2] is 5.01 to 631 nM.
The molecule `Cc1c(-c2cc(NC(=O)N3CCCC3)ccc2F)nc2ncc(N3CCOCC3)nn12` [Example 27, N-(4-fluoro-3-(7-methyl-2-morpholinoimidazo [1,2-b][1,2,4]triazin-6-yl)phenyl)pyrrolidine-1-carboxamide] registered a solubility at 1 h in series [1] of 100 to 416 µM (≈ 42.5 to 177 µg/mL). Moreover, the EC50 in series [2] is 5.01 to 631 nM.
In the case of `COCCOc1ccc(-c2cnc3nc(-c4cc(NC(=O)N5CCCC5)ccc4F)cn3n2)cc1` [Example 21, N-(4-fluoro-3-(2-(4-(2-methoxyethoxy)phenyl)imidazo[1,2-b][1,2,4]triazin-6-yl)phenyl) pyrrolidine-1-carboxamide], in series [2], the EC50 is 5.01 to 631 nM.
As for `CC(O)c1cnc2nc(-c3cc(NC(=O)N4CCCC4)ccc3F)cn2n1` (racemic) [Example 24, (+,−)-N-(4-fluoro-3-(2-(1-hydroxyethyl)imidazo [1,2-b][1,2,4]triazin-6-yl)phenyl)pyrrolidine-1-carboxamide], the solubility at 1 h in series [1] was 100 to 416 µM (≈ 37 to 154 µg/mL). Moreover, the EC50 in series [2] is 5.01 to 631 nM.
Take `O=C(Nc1ccc(F)c(-c2nc3ncc(N4CCOCC4)nn3c2F)c1)N1CCCC1` [Example 40, N-(4-fluoro-3-(7-fluoro-2-morpholinoimidazo [1,2-b][1,2,4]triazin-6-yl)phenyl)pyrrolidine-1-carboxamide]: the solubility at 1 h in series [1] is 100 to 416 µM (≈ 42.9 to 179 µg/mL). The EC50 in series [2] is 5.01 to 631 nM.
`CC(C)=Cc1cnc2nc(-c3cc(NC(=O)N4CCCC4)ccc3F)cn2n1` [Example 47, N-(4-fluoro-3-(2-(2-methylprop-1-en-1-yl)imidazo[1,2-b][1,2,4]triazin-6-yl)phenyl) pyrrolidine-1-carboxamide] returned a solubility at 1 h in series [1] of 10 to 83 µM (≈ 3.8 to 31.6 µg/mL). For the same molecule, the EC50 in series [2] was 5.01 to 631 nM.
For `CC(C)OC(=O)Nc1cnc2nc(-c3cc(NC(=O)N4CCCC4)ccc3F)cn2n1` [Example 54, isopropyl (6-(2-fluoro-5-(pyrrolidine-1-carboxamido)phenyl)imidazo[1,2-b][1,2,4]triazin-2-yl)carbamate] the same measures were 10 to 83 µM (≈ 4.27 to 35.5 µg/mL) and 5.01 to 631 nM.
As for `O=C(Nc1ccc(F)c(-c2cn3nc(N4CCNCC4)cnc3n2)c1)N1CCCC1` [Example 56, N-(4-fluoro-3-(2-(piperazin-1-yl)imidazo [1,2-b][1,2,4]triazin-6-yl)phenyl)pyrrolidine-1-carboxamide], the solubility at 1 h in series [1] lay within 100 to 416 µM (≈ 41 to 171 µg/mL). For the same molecule, in series [2], the EC50 is 5.01 to 631 nM.
In series [1], `CC(=O)c1cnc2nc(-c3cc(NC(=O)N4CCCC4)ccc3F)cn2n1` [Example 46, N-(3-(2-acetylimidazo [1,2-b][1,2,4]triazin-6-yl)-4-fluorophenyl) pyrrolidine-1-carboxamide] came in with a solubility at 1 h of 100 to 416 µM (≈ 36.8 to 153 µg/mL). Further, in series [2], the EC50 was 5.01 to 631 nM.
`COCCOc1ccccc1-c1cnc2nc(-c3cc(NC(=O)N4CCCC4)ccc3F)cn2n1` [Example 29, N-(4-fluoro-3-(2-(2-(2-methoxyethoxy)phenyl)imidazo[1,2-b][1,2,4]triazin-6-yl)phenyl) pyrrolidine-1-carboxamide] yielded a solubility at 1 h in series [1] of 10 to 83 µM (≈ 4.77 to 39.6 µg/mL). Also, in series [2], the EC50 was 5.01 to 631 nM.
With `O=C(Nc1cnc2nc(-c3cc(NC(=O)N4CCCC4)ccc3F)cn2n1)C1CCCO1` (centres unmarked) [Example 49, N-(4-fluoro-3-(2-(tetra-hydrofuran-2-carboxamido)imidazo [1,2-b][1,2,4]triazin-6-yl)phenyl)pyrrolidine-1-carboxamide], the solubility at 1 h in series [1] was in the range of 10 to 83 µM (≈ 4.39 to 36.5 µg/mL). Moreover, the EC50 in series [2] is 5.01 to 631 nM.
`O=C(Nc1ccc(F)c(-c2cn3nc(C4CCOCC4)cnc3n2)c1)N1CCCC1` [Example 15, N-(4-fluoro-3-(2-(tetrahydro-2H-pyran-4-yl)imidazo[1,2-b] [1,2,4]triazin-6-yl)phenyl)pyrrolidine-1-carboxamide]: the solubility at 1 h in series [1] was 100 to 416 µM (≈ 41 to 171 µg/mL). The EC50 in series [2] was 5.01 to 631 nM.
For the molecule `Cc1c(-c2cccc(NC(=O)N3CCCC3)c2)nc2ncc(N3CCOCC3)nn12` [Example 28, N-(3-(7-methyl-2-morpholinoimidazo [1,2-b][1,2,4]triazin-6-yl)phenyl)pyrrolidine-1-carboxamide], the solubility at 1 h in series [1] lay within 100 to 416 µM (≈ 40.7 to 170 µg/mL). The EC50 in series [2] was 5.01 to 631 nM.
Regarding `CN1CCN(c2cnc3nc(-c4cc(NC(=O)N5CCCC5)ccc4F)cn3n2)CC1` [Example 57, N-(4-fluoro-3-(2-(4-methylpiperazin-1-yl)imidazo[1,2-b][1,2,4]triazin-6-yl)phenyl) pyrrolidine-1-carboxamide], in series [1], the solubility at 1 h fell in the range of 100 to 416 µM (≈ 42.4 to 177 µg/mL). Further, in series [2], the EC50 is 5.01 to 631 nM.
Consider `C=C(C)c1cnc2nc(-c3cc(NC(=O)N4CCCC4)ccc3F)cn2n1` [Example 14, N-(4-fluoro-3-(2-(prop-1-en-2-yl)imidazo [1,2-b][1,2,4]triazin-6-yl)phenyl)pyrrolidine-1-carboxamide], for which, in series [1], the solubility at 1 h was 10 to 83 µM (≈ 3.66 to 30.4 µg/mL). The EC50 in series [2] was 5.01 to 631 nM.
As for `COC(=O)Nc1cnc2nc(-c3cc(NC(=O)N4CCCC4)ccc3F)cn2n1` [Example 55, methyl (6-(2-fluoro-5-(pyrrolidine-1-carboxamido)phenyl)imidazo[1,2-b][1,2,4]triazin-2-yl)carbamate], in series [1], the solubility at 1 h lay in the range of 10 to 83 µM (≈ 3.99 to 33.1 µg/mL). Further, in series [2], the EC50 was 5.01 to 631 nM.
`O=C(Nc1ccc(F)c(-c2cn3nc(N4CCCOCC4)cnc3n2)c1)N1CCCC1` [Example 11, N-(3-(2-(1,4-oxazepan-4-yl)imidazo[1,2-b][1,2,4]triazin-6-yl)-4-fluorophenyl)pyrrolidine-1-carboxamide]: the EC50 in series [2] is 5.01 to 631 nM.
`COc1ccccc1-c1cnc2nc(-c3cc(NC(=O)N4CCCC4)ccc3F)cn2n1` [Example 30, N-(4-fluoro-3-(2-(2-methoxyphenyl)imidazo [1,2-b][1,2,4]triazin-6-yl)phenyl)pyrrolidine-1-carboxamide]: the solubility at 1 h in series [1] lay within 10 to 83 µM (≈ 4.32 to 35.9 µg/mL). Further, the EC50 in series [2] was 5.01 to 631 nM.
In series [1], `O=C(Nc1ccc(F)c(-c2cn3nc(-c4ccccn4)cnc3n2)c1)N1CCCC1` [Example 35, N-(4-fluoro-3-(2-(pyridin-2-yl)imidazo[1,2-b] [1,2,4]triazin-6-yl)phenyl)pyrrolidine-1-carboxamide] yielded a solubility at 1 h of 10 to 83 µM (≈ 4.03 to 33.5 µg/mL). Besides, the EC50 in series [2] is 5.01 to 631 nM.
`O=C(Nc1ccc(F)c(-c2cn3nc(C4CCOC4)cnc3n2)c1)N1CCCC1` (racemic) [Example 23, (+,−)-N-(4-fluoro-3-(2-(tetrahydrofuran-3-yl)imidazo[1,2-b] [1,2,4]triazin-6-yl)phenyl)pyrrolidine-1-carboxamide]: the EC50 in series [2] was 5.01 to 631 nM.
